Laboratory results from patent US7034035B2, “Fungicidal mono-, bi-, and tri-cycloheteroalkyl amides and their compositions, methods of use and preparation” (priority 1999, dated 2006).
Like-named read-outs stand apart in the source and are kept apart here.

Tests used:
Ustilago maydis (USTIMA) = test: microbe, parasite or virus in culture; format: cell-based
Septoria tritici—SEPTTR = test: Leaf Blotch of Wheat, in vivo whole plant, 24 Hour Protectant; conditions: Zymoseptoria tritici; wheat (cultivar Yuma), sprayed at 100 ppm, inoculated after 24 hours; control of fungal infection vs untreated plants; read-out: SEPTTR in vivo 1 Day Protectant
[1] = tested on: Rhizoctonia solani (RHIZSO); test: microbe, parasite or virus in culture; format: cell-based
[2] = tested on: Puccinia recondita—PUCCRT; test: Brown Rust of Wheat, in vivo whole plant, 24 Hour Protectant; conditions: Puccinia, inoculated after 24 hours, read-out: PUCCRT in vivo 1 Day Protectant
[3] = tested on: Leptosphaeria nodorum—LEPTNO; test: Glume Blotch of Wheat, in vivo whole plant, 24 Hour Protectant; conditions: Leptosphaeria, 24 h, wheat (cultivar Yuma), sprayed at 100 ppm, inoculated after 24 hours; control of fungal infection vs untreated plants; read-out: LEPTNO in vivo 1 Day Protectant
[4] = wheat (cultivar Yuma), sprayed at 100 ppm, control of fungal infection vs untreated plants

SMILES	USTIMA in vitro Growth Inhibition (Ustilago maydis (USTIMA))	pest or weed control at 100 ppm (Septoria tritici—SEPTTR)	RHIZSO in vitro Growth Inhibition [1]	pest or weed control at 100 ppm [2, 4]	pest or weed control at 100 ppm [3]	pest or weed control at 100 ppm ([2]; wheat plants sprayed at 100 ppm, control vs untreated plants)
COc1ccnc(C(=O)NCC#Cc2ccccc2)c1O [Compound 240]	− (key: +: at least 80% growth inhibition; −: less than 80% growth inhibition)	75 to 100%	− (key: +: at least 80% growth inhibition; −: less than 80% growth inhibition)			
COc1ccnc(C(=O)NC(COC(=O)CC(C)OC(=O)CCc2ccccc2)C(=O)OC(C)C)c1O (stereo not drawn) [Compound 353]				75 to 100%		
COc1ccnc(C(=O)NC2C3CC4C(C3Cl)C42)c1O (stereo not drawn) [Compound 304]	− (key: +: at least 80% growth inhibition; −: less than 80% growth inhibition)	75 to 100%	+ (key: +: at least 80% growth inhibition; −: less than 80% growth inhibition)			
COc1ccnc(C(=O)NC2C(=O)c3ccc(-c4ccco4)cc3OC2C)c1O (stereo not drawn) [Compound 323]	− (key: +: at least 80% growth inhibition; −: less than 80% growth inhibition)	75 to 100%	+ (key: +: at least 80% growth inhibition; −: less than 80% growth inhibition)		75 to 100%	
COc1ccnc(C(=O)NC2CC(C)(C)C(Oc3cc(C(F)(F)F)cc(C(F)(F)F)n3)C(C)(C)C2)c1O (stereo not drawn) [Compound 272]	− (key: +: at least 80% growth inhibition; −: less than 80% growth inhibition)	75 to 100%	− (key: +: at least 80% growth inhibition; −: less than 80% growth inhibition)			
COc1ccnc(C(=O)NC(COC(=O)CC(C)O[Si](C)(C)C(C)(C)C)C(=O)OC(C)C)c1O (stereo not drawn) [Compound 354]				75 to 100%		
COc1ccnc(C(=O)NC2CC(C)(C)/C=C\CC(C)(C)C2)c1O (stereo not drawn) [Compound 283]	− (key: +: at least 80% growth inhibition; −: less than 80% growth inhibition)	75 to 100%	− (key: +: at least 80% growth inhibition; −: less than 80% growth inhibition)			
COc1ccnc(C(=O)N[C@H]2CC3CC2[C@@H](COCc2cccc(C(F)(F)F)c2)C3)c1O (stereo partly drawn) [Compound 295]	− (key: +: at least 80% growth inhibition; −: less than 80% growth inhibition)	75 to 100%	+ (key: +: at least 80% growth inhibition; −: less than 80% growth inhibition)			
COc1ccnc(C(=O)N[C@H](C(=O)O[C@@H](C)[C@H](OC(=O)C(C)C)[C@@H](Cc2ccccc2)C(=O)OCc2ccccc2)[C@@H](C)OC(C)=O)c1O [Compound 361]				75 to 100%		
COc1ccnc(C(=O)N[C@H]2CO[C@](C)(C(C)CC3=C(C)CCCC3(C)C)OC2)c1O (stereo partly drawn) [Compound 319]	− (key: +: at least 80% growth inhibition; −: less than 80% growth inhibition)		− (key: +: at least 80% growth inhibition; −: less than 80% growth inhibition)	75 to 100%		
COc1ccnc(C(=O)N[C@@H](Cc2ccc(OCc3ccccc3)cc2)C(=O)OCc2ccccc2)c1O [Compound 339]	− (key: +: at least 80% growth inhibition; −: less than 80% growth inhibition)	75 to 100%	− (key: +: at least 80% growth inhibition; −: less than 80% growth inhibition)	75 to 100%	75 to 100%	
COc1ccnc(C(=O)NC2CCCC(Sc3ccc(C(F)(F)F)cn3)C2)c1O (stereo not drawn) [Compound 274]	− (key: +: at least 80% growth inhibition; −: less than 80% growth inhibition)		+ (key: +: at least 80% growth inhibition; −: less than 80% growth inhibition)	75 to 100%	75 to 100%	
COc1ccnc(C(=O)N[C@@H]2CC3CC2c2ccccc23)c1O (stereo partly drawn) [Compound 290]	− (key: +: at least 80% growth inhibition; −: less than 80% growth inhibition)		+ (key: +: at least 80% growth inhibition; −: less than 80% growth inhibition)	75 to 100%	75 to 100%	
COc1ccnc(C(=O)N[C@H]2CO[C@H](C(C)Cc3ccc(C(C)(C)C)cc3)OC2)c1O (stereo partly drawn) [Compound 316]	+ (key: +: at least 80% growth inhibition; −: less than 80% growth inhibition)		− (key: +: at least 80% growth inhibition; −: less than 80% growth inhibition)	75 to 100%		
COc1ccnc(C(=O)NC2CC(C)(C)CC3(C2)CC3(F)F)c1O (stereo not drawn) [Compound 255]	− (key: +: at least 80% growth inhibition; −: less than 80% growth inhibition)		− (key: +: at least 80% growth inhibition; −: less than 80% growth inhibition)		75 to 100%	
COc1ccnc(C(=O)NC2CSCC(c3ccccc3)C2)c1O (stereo not drawn) [Compound 324]	+ (key: +: at least 80% growth inhibition; −: less than 80% growth inhibition)		+ (key: +: at least 80% growth inhibition; −: less than 80% growth inhibition)		75 to 100%	
COc1ccnc(C(=O)NC(COC(=O)C(Cc2ccccc2)C(C)O[Si](C)(C)C(C)(C)C)C(=O)OC(C)C)c1O (stereo not drawn) [Compound 357]				75 to 100%		
COc1ccnc(C(=O)NC(COC(=O)CCc2ccccc2)C(=O)OC(C)COC(=O)C(C)C)c1O (stereo not drawn) [Compound 359]		75 to 100%		75 to 100%		
COc1ccnc(C(=O)N[C@@H](Cc2ccc(OCc3ccccc3)cc2)C(=O)O)c1O [Compound 337]	− (key: +: at least 80% growth inhibition; −: less than 80% growth inhibition)		− (key: +: at least 80% growth inhibition; −: less than 80% growth inhibition)		75 to 100%	
COc1ccnc(C(=O)NC2CC(C)(C)CCCC2C)c1O (stereo not drawn) [Compound 277]	− (key: +: at least 80% growth inhibition; −: less than 80% growth inhibition)	75 to 100%	− (key: +: at least 80% growth inhibition; −: less than 80% growth inhibition)			
O=C(Nc1ccc(Cl)cc1)c1ncccc1O [Compound 213]	− (key: +: at least 80% growth inhibition; −: less than 80% growth inhibition)		− (key: +: at least 80% growth inhibition; −: less than 80% growth inhibition)	75 to 100%		
COc1ccnc(C(=O)N[C@@H](COCc2ccccc2)C(=O)O[C@@H](C)[C@H](OC(=O)C(C)C)[C@@H](Cc2ccccc2)C(=O)OCc2ccccc2)c1O [Compound 342]				75 to 100%		
COc1ccnc(C(=O)NC(COC(=O)C(C)Cc2ccccc2)C(=O)OC(C)C)c1O (stereo not drawn) [Compound 351]				75 to 100%		
COc1ccnc(C(=O)Nc2cccc(Oc3ccc(C(F)(F)F)cc3)n2)c1O [Compound 469]						75 to 100%
COC(=O)C(COC(=O)C(COC(=O)C(C)C)Cc1ccccc1)NC(=O)c1nccc(OC)c1O (stereo not drawn) [Compound 349]				75 to 100%		
COc1ccnc(C(=O)N[C@H]2CO[C@@H](C(C)Cc3ccc(C(C)(C)C)cc3)OC2)c1O (stereo partly drawn) [Compound 317]	− (key: +: at least 80% growth inhibition; −: less than 80% growth inhibition)		− (key: +: at least 80% growth inhibition; −: less than 80% growth inhibition)	75 to 100%		
COc1ccnc(C(=O)N[C@H]2CC3CC2[C@H](COCc2cccc(C(F)(F)F)c2)C3)c1O (stereo partly drawn) [Compound 294]	− (key: +: at least 80% growth inhibition; −: less than 80% growth inhibition)		+ (key: +: at least 80% growth inhibition; −: less than 80% growth inhibition)		75 to 100%	
COc1ccnc(C(=O)N[C@H]2CC[C@H]3C4CCC(CC4)[C@H]3C2=O)c1O [Compound 292]	− (key: +: at least 80% growth inhibition; −: less than 80% growth inhibition)		− (key: +: at least 80% growth inhibition; −: less than 80% growth inhibition)		75 to 100%	
COc1ccnc(C(=O)NC2CC(C)(C)CC(C)(COCC(Cl)CCl)C2)c1O (stereo not drawn) [Compound 257]	+ (key: +: at least 80% growth inhibition; −: less than 80% growth inhibition)		− (key: +: at least 80% growth inhibition; −: less than 80% growth inhibition)		75 to 100%	
